One substance from patent publication US20220397580A1, “METHOD OF DETECTING A NEURODEGENERATIVE DISEASE” (NATIONAL UNIVERSITY OF SINGAPORE, priority 2019, published 2022) can be followed below.

For this assay, the system named is exosomes derived from neuronal cells (SH-SY5Y). The assay can be described thus: Exosome-Aβ association kinetics on APEX (SPR) sensor functionalized with protein aggregates. To be noted: relative to BSA controls. In kind it is binding, Human. The protocol: Characterization of exosome-A13 association. The prepared protein aggregates (Aβ42 and BSA control) were used for surface functionalization onto the APEX sensors, via EDC/NHS coupling as previously described. Unbound protein aggregates were washed away with PBS. The amount of protein conjugated was measured from the resultant transmission spectral shifts. This information was used to determine the number of conjugated protein aggregates and their associated total protein surface area for exosome binding (see below for detailed information), so as to normalize for binding affinities. Following surface functionalization with the protein aggregates, exosomes ([…]) were introduced onto the sensors. Spectral changes were measured every 3 s for a total duration of 480 s to construct real-time kinetics sensorgrams. Exosome association kinetics and binding affinities were determined for different-sized protein aggregates.
To account for protein aggregate size differences as well as SPR-associated exponential decay of sensitivity (with increasing distance from the sensing surface), the following equation was used
S=E×∫0^2rπ[r^2−(r−z)^2]×e^(−2z/l^d^)dz […]
All protein aggregates were approximated as spheres, as supported by transmission electron micrographs (FIG. 3b, left) and their r determined from dynamic light scattering analysis. […]

On to “bigger Aβ42 aggregates: Aβ42 protein (rPeptide) incubated with agitation for 1 h to induce further aggregation, filtered through 0.2-μm membrane”, for which the “KD(small)/KD(big)” value (exosome binding data normalized to aggregate surface area) turned out to be 5.27. Besides, the “binding affinity of the vesicles compared to the smaller Aβ42 aggregates” value (neuron-derived exosomes, normalized to aggregate surface area) is on record as over 5 fold.
